{"source": "patent US4853221A", "about": "“Method for treating non-small cell lung cancer, head and neck cancers and breast cancer” (Warner-Lambert Company, priority 1987, dated 1989)", "key": {"B-16 Melanoma": {"test_system": "B-16 Melanoma", "assay": "Antitumor activity against B-16 melanoma in mice", "assay_type": "in vivo, mouse", "conditions": "for Life Span % ILS / Life Span % T/C: ip daily, Days 1-9", "experimental": "The growth inhibition properties of 5-methyl-6-[[(3,4,5-trimethoxyphenyl)amino]methyl]-2,4-quinazolinediamine (trimetrexate) against several transplanted murine tumors were evaluated employing the antitumor screening program of the Drug Evaluation Branch of the National Cancer Institute. The protocols for these tests is described in Cancer Chemotherapy Reports, 3: 1-103 (1972). The dosing schedules are results from these tests appear in Table IV.\nIn the L1210, P388, and B-16 melanoma models, results are expressed as a percentage of median control survival time. Percentage of increase in survival time and/or cures (30 day survivors) were the parameters used to measure the effectiveness of the agents. An initial median survival value for treated over control percentage (% T/C) equal to or greater than 125% was considered indicative of activity. For confirmatory activity, two multidose assays must show % T/C values equal to or greater than 150%.\nPercent increase in median life span (% ILS) values appearing in the tables were calculated from the formula; 100×(median life span in days of treated mice minus median life span in days of untreated mice) divided by median life span in days of untreated control mice. That is, % ILS=[100×(T-C)]/C. % T/C and %ILS are directly interconvertible by the formula % ILS=% T/C -100.\nB16 Melanotic melanoma was implanted into BD2F1 mice in the form of a tumor \"brei\" prepared from a 1:10 weight/volume homogenate of the tumor in balanced salt solution.\nIn all of the mouse tumor studies described above, routine controls consisted of matching ten normal mice (with no tumors) to each tumor-bearing treatment group and injecting them with the same drug at the same dosages, schedules, days of administration, and drug route as the tumor-bearing mice. In this way, drug-induced toxicity (lethality and weight loss) could be clearly separated from the effects of the drug on the tumors."}, "[1]": {"test_system": "murine tumor cell lines (L5178Y, Sarcoma-180, Walker-256)", "assay": "Comparison with methotrexate against murine tumor cell lines in vitro", "assay_type": "cell-based", "conditions": "all of the murine tumor cell lines tested", "experimental": "(§1) Two leukemia cell lines (L1210 and L5178Y) and two solid tumor cell lines (Sarcoma 180 and Walker 256) were used in these studies.\n(§2) Logarithmically growing L1210 cells (approximately 3×10^5 cells/ml) were diluted with Fischer's medium (containing 10% horse serum) to an approximate concentration of 5×10^4 cells/ml. Cells were planted in duplicate into 15 ml culture tubes containing either no drug or various amounts of drug, and incubated for 48 hours at 37° C. before being counted.\n(§3) Trimetrexate was also evaluated in a similar manner side-by-side with methotrexate for its effect on the growth of three additional murine cell lines (L5178Y, Sarcoma-180, and Walkler-256) and three human cell lines (acute myelogenous leukemia K-562, T-cell 8402, and B-cell 8392), propagated in vitro."}, "[2]": {"test_system": "non-small cell lung cancer", "assay": "Phase II trial, non-small cell lung cancer", "assay_type": "in vivo, human", "experimental": "The efficacy and safety of trimetrexate in the treatment of patients with non-small cell lung cancer was evaluated in a 16-center Phase II study.\nInitially, all patients received a single 8 mg/m^2 dose of trimetrexate daily for five days of a 21-day treatment course. The dose was administered at three- or four-week intervals, with the number of treatment courses dependent upon the patient's response.\nObjective response was determined by a decrease from baseline in tumor size as set forth by the World Health Organization (WHO) response criteria. Duration of response was measured from the date of first treatment to the first date when progressive disease was documented.\nResponses were classified as complete or partial. A complete response was defined as no evidence of disease and a partial response as a 50% or greater decrease in overall tumor size without evidence of progression in 28 days."}, "colon carcinoma": {"test_system": "colon carcinoma", "assay": "Phase I clinical trials, colon carcinoma", "assay_type": "in vivo, human", "conditions": "single agent", "experimental": "Several Phase I clinical trials employing trimetrexate in human patients were carried out. In one study, 36 patients were treated with trimetrexate as a single agent at daily doses of 0.5 mg/m^2 /day to 12 mg/m^2 /day administered intravenously for five days.\nIn additional Phase I clinical studies, patients were administered trimetrexate with single intravenous doses ranging between 5 and 450 mg/m^2 and with weekly doses of slightly greater than 100 mg/m^2."}, "Sarcoma-180": {"test_system": "Sarcoma-180", "assay": "Inhibition of Sarcoma-180 cell growth in vitro", "assay_type": "cell-based", "conditions": "Mus musculus, 48 h; Murine Sarcoma-180; read-out: ED50 (the source's name)", "experimental": "as §1, §2, §3"}, "Renal tumor": {"test_system": "Renal tumor", "assay": "Human tumor cloning system, renal tumors", "assay_type": "cell-based", "conditions": "one hour, 6 specimens", "from_the_text": "(§4) The activity of trimetrexate was compared with that of methotrexate in tests with a human tumor cloning system (Latham, et al., Proc. Am. Assoc. Cancer Res., 24: 278 (1983)). The data from these tests appear in Table III were the activities are expressed as the numbers of tumors with 50% or greater reduction in tumor colony forming units after one hour exposure to the drug."}, "Melanoma": {"test_system": "Melanoma", "assay": "Human tumor cloning system, melanoma", "assay_type": "cell-based", "conditions": "one hour, 5 specimens", "from_the_text": "as §4"}, "[3]": {"test_system": "human cell lines (K-562, T-cell 8402, B-cell 8392)", "assay": "Comparison with methotrexate against human cell lines in vitro", "assay_type": "cell-based", "experimental": "as §2, §3"}, "[4]": {"test_system": "transplanted rodent tumors which are resistant to methotrexate", "assay": "Activity against methotrexate-resistant transplanted rodent tumors", "conditions": "in vivo"}, "[5]": {"conditions": "optimal dose 20 mg/kg (dose range 20-0.62)"}, "[6]": {"conditions": "optimal dose 20 mg/kg (dose range 40-1.25)"}}}
{"smiles": "COc1cc(NCc2ccc3nc(N)nc(N)c3c2C)cc(OC)c1OC", "note": "[Trimetrexate, 5-methyl-6-[[(3,4,5-trimethoxyphenyl)amino]methyl]-2,4-quinazolinediamine]", "values": [{"measurement": "antitumor activity", "setting": "B-16 Melanoma; intraperitoneally implanted", "result": "good activity"}, {"measurement": "Life Span % ILS", "setting": "B-16 Melanoma; [5]", "result": 50, "unit": "%"}, {"measurement": "Life Span % T/C", "setting": "B-16 Melanoma; [5]", "result": 150, "unit": "%"}, {"measurement": "Life Span % ILS", "setting": "B-16 Melanoma; [6]", "result": 64, "unit": "%"}, {"measurement": "Life Span % T/C", "setting": "B-16 Melanoma; [6]", "result": 164, "unit": "%"}, {"measurement": "potency relative to methotrexate", "setting": "[1]", "result": "more potent than methotrexate"}, {"measurement": "patients with stable disease", "setting": "[2]; 23 patients", "result": 39, "unit": "%"}, {"measurement": "median time to progressive disease", "setting": "[2]; 23 patients with stable disease", "result": 15.7, "unit": "weeks"}, {"measurement": "patients who only experienced progressive disease", "setting": "[2]; 25 patients", "result": 42, "unit": "%"}, {"measurement": "median time to progression", "setting": "[2]; 25 patients who only experienced progressive disease", "result": 3.4, "unit": "weeks"}, {"measurement": "median time to progressive disease", "setting": "[2]; 55 of the 59 evaluable patients, range 1.9-75.0", "result": 7.9, "unit": "weeks"}, {"measurement": "patients with partial response", "setting": "[2]; 59 evaluable patients, initial 8 mg/m^2 daily for five days of a 21-day course", "result": "Eleven"}, {"measurement": "response rate (partial response)", "setting": "[2]; 95% confidence interval 9%-29%, 59 evaluable patients", "result": 19, "unit": "%"}, {"measurement": "additional patients with 50% regression only by liver measurements", "setting": "[2]; in vivo", "result": "One"}, {"measurement": "overall median survival time", "setting": "[2]; in vivo", "result": 26.4, "unit": "weeks"}, {"measurement": "patients who only experienced progressive disease (number)", "setting": "[2]; in vivo", "result": 25, "unit": "patients"}, {"measurement": "patients with stable disease (number)", "setting": "[2]; in vivo", "result": 23, "unit": "patients"}, {"measurement": "patients without progressive disease at end of reporting period", "setting": "[2]; in vivo", "result": "Four"}, {"measurement": "median time to progressive disease", "setting": "[2]; patients who responded, range 11.1-47.0", "result": 24.9, "unit": "weeks"}, {"measurement": "median duration of partial response", "setting": "[2]; range 5.6-40.7", "result": 15.3, "unit": "weeks"}, {"measurement": "patients with favorable responses", "setting": "colon carcinoma", "result": "four"}, {"measurement": "IC50", "setting": "Sarcoma-180", "result": 18, "unit": "nM"}, {"measurement": "Number of Tumors with 50% or Greater Decrease in Tumor Colony Forming Units", "setting": "Renal tumor; trimetrexate 0.1 μg/ml", "result": 1}, {"measurement": "Number of Tumors with 50% or Greater Decrease in Tumor Colony Forming Units", "setting": "Renal tumor; trimetrexate 1.0 μg/ml", "result": 1}, {"measurement": "Number of Tumors with 50% or Greater Decrease in Tumor Colony Forming Units", "setting": "Melanoma; trimetrexate 0.1 μg/ml", "result": 2}, {"measurement": "Number of Tumors with 50% or Greater Decrease in Tumor Colony Forming Units", "setting": "Melanoma; trimetrexate 1.0 μg/ml", "result": 3}, {"measurement": "effectiveness relative to methotrexate", "setting": "[3]", "result": "more effective in inhibiting cell growth in vitro than was methotrexate"}, {"measurement": "activity against methotrexate-resistant transplanted rodent tumors", "setting": "[4]", "result": "activity against a variety of transplanted rodent tumors"}]}
